According to article PMC7614683, “A small molecule PI3Kα activator for cardioprotection and neuroregeneration” (Nature, 2023):
Read-outs that look alike come from different tables or passages of the source.

Tests used:
Test in all cases: SelectScreen Z-LYTE kinase activity assay (SI Table 6)
Format in all cases: biochemical
[1] = target: protein kinases of the Z-LYTE panel (Homo sapiens, UniProt O60674)
Experimental: (§1) 133 protein kinases and 7 lipid kinases were counterscreened, with 1938 used at 1 μM, using the Adapta, Lantha and Z-LYTE assays (SelectScreen Kinase Profiling Service; Thermofisher – experimental details of these assays can be found here: https://www.thermofisher.com/uk/en/home/industrial/pharma-biopharma/drug-discovery-development/target-and-lead-identification-and-validation/kinasebiology/kinase-activity-assays.html. The tree represention in KinMap[59] generated courtesy of Cell Signaling Technology, Inc. (www.cellsignal.com). mTORC1 (mTOR/RAPTOR/LST8) protein complex and ATM kinase and substrates were produced as previously described[57],[60]. Screening of 1938 was conducted using SuperSep Phos-Tag 50 μmol/l 100 x 100 x 6.6 mm 17-well (192-18001/199-18011) gels. For ATM assays, 100 nM ATM was incubated for 30 min at 30°C with 5 μM GST-p53 and 1 mM ATP, in the absence or presence of 200 μM 1938 in ATM Kinase Buffer (50 mM HEPES pH 7.5, 100 mM NaCl, 10% glycerol, 2 mM […], 5 mM MgCl2). As a positive control for ATM activation, the same reaction was carried out with 100 nM ATM/5 μM GST-p53/1 mM ATP in the presence of 100 nM Mre11-Rad50-Nbs1 (MRN) complex, a known activator of ATM[61]. For mTORC1 assays, 50 nM mTORC1 complex (mTOR/LST8/RAPTOR) was incubated for 3 h at 30°C with 15 μM 4E-BP1, 10 mM MgCl2 and 250 μM ATP, in the absence or presence of 200 μM 1938. As a ‘positive’ control, a higher concentration (150 nM) of mTORC1 complex (mTOR/LST8/RAPTOR) was incubated for 3 h at 30°C with 15 μM 4E-BP1, 10 mM MgCl2 and 250 μM ATP. Kinase reactions were quenched by addition of SDS-PAGE Loading Buffer (as per manufacturer’s instructions) and freezing at -20°C before being run on the Phos-tag gels at 150 V for 90 min. Gels were then stained using InstantBlue™ Coomassie, and quantified using BioRad Image Lab Software. Kinase assays were carried out in triplicate.

[2] = target: protein kinases of the Z-LYTE panel (Homo sapiens, UniProt O75582)
Chain of protein kinases of the Z-LYTE panel (Homo sapiens, UniProt O75582) (O75582 whole entry): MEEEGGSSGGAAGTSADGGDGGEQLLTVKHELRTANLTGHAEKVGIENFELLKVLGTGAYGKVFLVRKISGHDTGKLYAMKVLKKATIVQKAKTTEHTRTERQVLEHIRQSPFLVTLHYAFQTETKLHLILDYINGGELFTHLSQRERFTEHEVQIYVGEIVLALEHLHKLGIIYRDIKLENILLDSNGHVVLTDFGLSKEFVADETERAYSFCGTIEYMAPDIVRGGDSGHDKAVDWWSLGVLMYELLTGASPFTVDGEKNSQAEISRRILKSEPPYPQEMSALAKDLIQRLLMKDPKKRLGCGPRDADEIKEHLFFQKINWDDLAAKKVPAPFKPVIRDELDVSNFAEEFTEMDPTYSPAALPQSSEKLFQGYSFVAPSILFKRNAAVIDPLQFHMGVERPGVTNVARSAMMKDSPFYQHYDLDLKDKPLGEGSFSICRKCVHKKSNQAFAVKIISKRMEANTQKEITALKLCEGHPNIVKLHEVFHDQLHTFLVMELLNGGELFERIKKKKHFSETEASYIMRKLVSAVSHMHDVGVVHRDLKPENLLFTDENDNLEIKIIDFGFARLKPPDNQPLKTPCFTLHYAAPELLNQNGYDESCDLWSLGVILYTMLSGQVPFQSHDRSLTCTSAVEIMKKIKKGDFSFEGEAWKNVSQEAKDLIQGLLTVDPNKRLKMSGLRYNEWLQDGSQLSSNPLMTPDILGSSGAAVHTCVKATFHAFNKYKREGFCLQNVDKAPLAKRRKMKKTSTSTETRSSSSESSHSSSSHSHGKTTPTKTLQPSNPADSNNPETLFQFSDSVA
Experimental: as §1

[3] = target: protein kinases of the Z-LYTE panel (Homo sapiens, UniProt P07332)
Experimental: as §1

[4] = target: protein kinases of the Z-LYTE panel (Homo sapiens, UniProt P07949, V804L)
Chain of protein kinases of the Z-LYTE panel (Homo sapiens, UniProt P07949, V804L) (P07949 29-1114 V804L): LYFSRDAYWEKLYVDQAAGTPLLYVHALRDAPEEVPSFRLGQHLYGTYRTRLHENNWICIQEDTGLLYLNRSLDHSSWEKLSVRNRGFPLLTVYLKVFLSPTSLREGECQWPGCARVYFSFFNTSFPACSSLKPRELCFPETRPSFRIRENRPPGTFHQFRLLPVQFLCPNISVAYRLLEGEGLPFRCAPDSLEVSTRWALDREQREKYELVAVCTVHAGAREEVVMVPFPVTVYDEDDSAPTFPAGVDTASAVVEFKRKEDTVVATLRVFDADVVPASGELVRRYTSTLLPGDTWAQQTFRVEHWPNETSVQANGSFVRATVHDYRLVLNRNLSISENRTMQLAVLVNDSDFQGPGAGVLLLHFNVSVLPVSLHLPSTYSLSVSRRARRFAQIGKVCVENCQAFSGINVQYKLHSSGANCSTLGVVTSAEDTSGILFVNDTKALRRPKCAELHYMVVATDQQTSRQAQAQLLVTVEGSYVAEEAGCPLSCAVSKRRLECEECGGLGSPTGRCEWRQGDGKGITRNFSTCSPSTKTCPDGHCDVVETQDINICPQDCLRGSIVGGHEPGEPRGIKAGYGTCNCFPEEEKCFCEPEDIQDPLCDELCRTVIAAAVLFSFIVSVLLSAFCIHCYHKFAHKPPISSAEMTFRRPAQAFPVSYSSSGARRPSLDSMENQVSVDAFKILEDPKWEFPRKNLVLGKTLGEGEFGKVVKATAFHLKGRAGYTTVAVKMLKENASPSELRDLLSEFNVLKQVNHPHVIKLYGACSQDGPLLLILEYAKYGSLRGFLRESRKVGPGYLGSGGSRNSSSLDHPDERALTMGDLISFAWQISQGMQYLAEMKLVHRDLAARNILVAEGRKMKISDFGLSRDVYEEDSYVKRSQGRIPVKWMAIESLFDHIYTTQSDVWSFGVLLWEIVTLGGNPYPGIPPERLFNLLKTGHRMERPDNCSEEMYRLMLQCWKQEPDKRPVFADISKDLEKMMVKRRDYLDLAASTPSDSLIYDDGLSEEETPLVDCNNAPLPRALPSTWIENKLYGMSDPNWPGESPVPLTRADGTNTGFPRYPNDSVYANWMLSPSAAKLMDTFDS
Experimental: as §1

[5] = target: protein kinases of the Z-LYTE panel (Homo sapiens, UniProt P08069)
Experimental: as §1

[6] = target: protein kinases of the Z-LYTE panel (Homo sapiens, UniProt P22455)
Chain of protein kinases of the Z-LYTE panel (Homo sapiens, UniProt P22455) (P22455 22-802): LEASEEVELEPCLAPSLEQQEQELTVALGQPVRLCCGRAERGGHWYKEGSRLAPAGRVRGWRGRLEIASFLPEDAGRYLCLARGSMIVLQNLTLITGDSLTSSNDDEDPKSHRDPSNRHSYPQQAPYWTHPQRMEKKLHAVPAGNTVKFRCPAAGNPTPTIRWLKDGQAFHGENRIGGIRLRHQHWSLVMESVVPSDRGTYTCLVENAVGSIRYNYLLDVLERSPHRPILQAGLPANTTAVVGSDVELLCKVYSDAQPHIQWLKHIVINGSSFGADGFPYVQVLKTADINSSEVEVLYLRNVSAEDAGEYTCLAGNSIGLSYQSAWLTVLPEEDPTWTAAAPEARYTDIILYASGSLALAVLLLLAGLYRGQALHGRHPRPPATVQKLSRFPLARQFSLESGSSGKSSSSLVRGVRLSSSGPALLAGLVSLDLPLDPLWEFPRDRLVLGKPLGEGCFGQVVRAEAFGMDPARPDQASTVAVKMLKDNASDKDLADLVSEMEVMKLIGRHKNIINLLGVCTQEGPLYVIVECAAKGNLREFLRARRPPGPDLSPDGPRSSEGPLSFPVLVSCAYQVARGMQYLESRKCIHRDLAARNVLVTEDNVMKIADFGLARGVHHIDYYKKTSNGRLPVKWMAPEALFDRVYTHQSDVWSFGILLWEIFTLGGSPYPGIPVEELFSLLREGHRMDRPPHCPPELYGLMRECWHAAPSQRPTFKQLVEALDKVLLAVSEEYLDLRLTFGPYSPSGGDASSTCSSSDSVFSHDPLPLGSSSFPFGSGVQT
Experimental: as §1

[7] = target: protein kinases of the Z-LYTE panel (Homo sapiens, UniProt P49761)
Chain of protein kinases of the Z-LYTE panel (Homo sapiens, UniProt P49761) (P49761 whole entry): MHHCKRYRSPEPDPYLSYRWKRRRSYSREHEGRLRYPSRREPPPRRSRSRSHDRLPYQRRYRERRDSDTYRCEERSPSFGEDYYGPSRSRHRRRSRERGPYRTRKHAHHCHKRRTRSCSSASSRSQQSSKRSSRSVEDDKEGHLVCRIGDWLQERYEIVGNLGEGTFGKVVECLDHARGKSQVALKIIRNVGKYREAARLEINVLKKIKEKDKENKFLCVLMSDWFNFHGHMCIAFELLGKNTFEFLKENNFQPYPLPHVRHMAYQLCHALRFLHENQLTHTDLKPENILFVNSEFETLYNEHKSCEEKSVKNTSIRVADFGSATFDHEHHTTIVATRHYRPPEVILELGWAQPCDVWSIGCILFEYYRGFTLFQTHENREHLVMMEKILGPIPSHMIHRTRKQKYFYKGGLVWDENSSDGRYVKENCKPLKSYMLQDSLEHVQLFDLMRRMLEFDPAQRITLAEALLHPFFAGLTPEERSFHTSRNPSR
Experimental: as §1

[8] = target: protein kinases of the Z-LYTE panel (Homo sapiens, UniProt P49841)
Chain of protein kinases of the Z-LYTE panel (Homo sapiens, UniProt P49841) (P49841 whole entry): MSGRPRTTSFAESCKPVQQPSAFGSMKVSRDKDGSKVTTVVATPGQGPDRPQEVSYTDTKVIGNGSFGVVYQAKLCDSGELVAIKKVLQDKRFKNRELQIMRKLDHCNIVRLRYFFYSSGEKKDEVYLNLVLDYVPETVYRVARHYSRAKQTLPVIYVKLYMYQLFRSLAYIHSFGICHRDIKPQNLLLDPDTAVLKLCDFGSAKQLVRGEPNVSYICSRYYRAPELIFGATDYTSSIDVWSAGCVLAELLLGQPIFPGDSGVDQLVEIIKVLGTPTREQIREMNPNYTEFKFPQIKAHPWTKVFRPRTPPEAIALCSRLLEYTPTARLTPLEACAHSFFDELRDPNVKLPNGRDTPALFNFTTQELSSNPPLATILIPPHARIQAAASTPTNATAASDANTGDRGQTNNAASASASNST
Experimental: as §1

[9] = target: protein kinases of the Z-LYTE panel (Homo sapiens, UniProt P53350)
Experimental: as §1

[10] = target: T1, protein kinases of the Z-LYTE panel (Homo sapiens, UniProt Q02156)
T1 sequence (Q02156 1-737): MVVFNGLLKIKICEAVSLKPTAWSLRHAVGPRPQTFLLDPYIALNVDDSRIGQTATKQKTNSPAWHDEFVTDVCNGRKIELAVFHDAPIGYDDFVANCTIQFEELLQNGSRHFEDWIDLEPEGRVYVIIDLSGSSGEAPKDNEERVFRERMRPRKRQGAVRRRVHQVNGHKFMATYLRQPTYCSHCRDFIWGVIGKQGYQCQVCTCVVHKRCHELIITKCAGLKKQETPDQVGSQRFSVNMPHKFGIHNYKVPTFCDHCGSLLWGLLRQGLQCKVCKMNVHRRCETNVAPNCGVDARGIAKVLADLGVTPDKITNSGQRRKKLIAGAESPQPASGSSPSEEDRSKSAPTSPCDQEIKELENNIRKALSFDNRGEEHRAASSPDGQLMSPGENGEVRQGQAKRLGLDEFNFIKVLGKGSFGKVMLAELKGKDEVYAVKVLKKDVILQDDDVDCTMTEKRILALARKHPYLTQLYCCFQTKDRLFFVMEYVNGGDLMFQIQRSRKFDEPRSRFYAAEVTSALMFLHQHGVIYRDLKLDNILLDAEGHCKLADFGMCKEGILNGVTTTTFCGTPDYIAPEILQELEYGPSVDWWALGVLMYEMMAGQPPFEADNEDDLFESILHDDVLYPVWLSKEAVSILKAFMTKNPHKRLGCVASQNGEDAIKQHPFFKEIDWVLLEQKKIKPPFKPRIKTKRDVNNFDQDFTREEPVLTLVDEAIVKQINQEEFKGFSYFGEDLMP
Experimental: as §1

Chain of protein kinases of the Z-LYTE panel (Homo sapiens, UniProt O60674) (O60674 whole entry): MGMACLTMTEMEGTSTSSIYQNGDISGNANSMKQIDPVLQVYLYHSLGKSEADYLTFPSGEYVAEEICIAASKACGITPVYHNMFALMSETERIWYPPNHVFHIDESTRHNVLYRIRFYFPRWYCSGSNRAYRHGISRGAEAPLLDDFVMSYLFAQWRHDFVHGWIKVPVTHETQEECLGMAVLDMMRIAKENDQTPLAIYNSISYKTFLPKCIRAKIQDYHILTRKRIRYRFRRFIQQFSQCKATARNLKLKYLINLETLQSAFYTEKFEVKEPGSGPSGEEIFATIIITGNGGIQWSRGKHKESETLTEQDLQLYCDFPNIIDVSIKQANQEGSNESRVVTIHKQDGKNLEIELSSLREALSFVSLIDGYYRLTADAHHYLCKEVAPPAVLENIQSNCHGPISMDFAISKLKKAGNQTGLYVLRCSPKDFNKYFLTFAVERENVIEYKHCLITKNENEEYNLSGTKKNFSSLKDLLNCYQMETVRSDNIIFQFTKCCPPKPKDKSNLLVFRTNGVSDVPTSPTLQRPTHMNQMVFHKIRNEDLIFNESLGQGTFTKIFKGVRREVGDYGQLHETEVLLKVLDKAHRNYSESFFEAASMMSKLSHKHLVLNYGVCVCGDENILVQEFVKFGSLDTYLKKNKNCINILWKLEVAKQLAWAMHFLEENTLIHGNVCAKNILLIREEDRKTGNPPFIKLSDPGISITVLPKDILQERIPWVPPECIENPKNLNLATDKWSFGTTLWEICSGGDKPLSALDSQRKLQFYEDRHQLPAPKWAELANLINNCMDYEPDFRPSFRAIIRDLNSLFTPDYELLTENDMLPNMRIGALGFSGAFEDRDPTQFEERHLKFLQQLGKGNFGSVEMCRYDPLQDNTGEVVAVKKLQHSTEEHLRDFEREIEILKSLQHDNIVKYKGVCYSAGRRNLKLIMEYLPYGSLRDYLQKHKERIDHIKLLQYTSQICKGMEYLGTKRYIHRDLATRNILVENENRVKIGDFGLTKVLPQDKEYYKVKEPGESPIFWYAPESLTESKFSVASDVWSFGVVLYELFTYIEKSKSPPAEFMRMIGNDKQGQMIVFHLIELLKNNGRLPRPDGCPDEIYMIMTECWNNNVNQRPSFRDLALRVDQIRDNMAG

CCN1CCN(c2ccc(Nc3cc(Nc4cccc5c4N(C(C)=O)CC5)ccn3)cc2)CC1 [Compound 1938]
inhibition at 1 µM ([1]; read-out: % Inhibition Point 1): 6.6%
inhibition at 1 µM ([1]; read-out: % Inhibition Point 2): 9%
inhibition at 1 µM ([1]; read-out: % Inhibition mean): 8%
inhibition at 1 µM ([2]; read-out: % Inhibition Point 1): 1.64%
inhibition at 1 µM ([2]; read-out: % Inhibition Point 2): 4%
inhibition at 1 µM ([2]; read-out: % Inhibition mean): 3%
inhibition at 1 µM ([3]; read-out: % Inhibition Point 1): 7%
inhibition at 1 µM ([3]; read-out: % Inhibition Point 2): 8%
inhibition at 1 µM ([3]; read-out: % Inhibition mean): 7.57%
inhibition at 1 µM ([4]; read-out: % Inhibition Point 1): 11%
inhibition at 1 µM ([4]; read-out: % Inhibition Point 2): 11%
inhibition at 1 µM ([4]; read-out: % Inhibition mean): 11%
inhibition at 1 µM ([5]; read-out: % Inhibition Point 1): 5.5%
inhibition at 1 µM ([5]; read-out: % Inhibition Point 2): 5.33%
inhibition at 1 µM ([5]; read-out: % Inhibition mean): 5.41%
inhibition at 1 µM ([6]; read-out: % Inhibition Point 1): 8.55%
inhibition at 1 µM ([6]; read-out: % Inhibition Point 2): 8%
inhibition at 1 µM ([6]; read-out: % Inhibition mean): 8%
inhibition at 1 µM ([7]; read-out: % Inhibition Point 1): -1%
inhibition at 1 µM ([7]; read-out: % Inhibition Point 2): 0.422%
inhibition at 1 µM ([7]; read-out: % Inhibition mean): -0.267%
inhibition at 1 µM ([8]; read-out: % Inhibition Point 1): 5.38%
inhibition at 1 µM ([8]; read-out: % Inhibition Point 2): 5%
inhibition at 1 µM ([8]; read-out: % Inhibition mean): 5%
inhibition at 1 µM ([9]; read-out: % Inhibition Point 1): 2.86%
inhibition at 1 µM ([9]; read-out: % Inhibition Point 2): 3.28%
inhibition at 1 µM ([9]; read-out: % Inhibition mean): 3%
inhibition at 1 µM ([10]; read-out: % Inhibition Point 1): 1%
inhibition at 1 µM ([10]; read-out: % Inhibition Point 2): 2%
inhibition at 1 µM ([10]; read-out: % Inhibition mean): 1.57%
